Legend:
[1] = system: Danio rerio embryo
Method: (§1)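 Zebrafish embryos (UFZ-OBI strain) were exposed from 2 hpf for 48 h (2 dpf) or 96 h (4 dpf) at 28 °C; spontaneous tail coiling was scored at 25 hpf. Morphological features from automated image analysis (FishInspector), heart rate and locomotor response were fitted with drc models. Quantal endpoints were dichotomised at 2.5 SD from controls and fitted with a log-logistic model; heart rate, pigmentation and STC were normalised to the replicate control mean. Betamethasone was tested as betamethasone dipropionate, diflorasone as diflorasone diacetate.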

[2] = system: Danio rerio embryo; details: exposure time: 4 dpf
Method: as §1

[3] = system: Danio rerio embryo; assay: EC50 Curvature_Increase; details: exposure time: 2 dpf
Method: as §1

[4] = system: Danio rerio embryo; assay: EC50 Body length_Decrease
Method: as §1

[5] = system: Danio rerio embryo; assay: EC50 Bladder size_Decrease; details: exposure time: 4 dpf
Method: as §1

[6] = system: Danio rerio embryo; assay: EC50 Pericard size_Increase
Method: as §1

[7] = system: Danio rerio embryo; assay: EC50 Yolk sac size_Increase; details: exposure time: 4 dpf
Method: as §1

[8] = system: Danio rerio embryo; assay: EC50 Eye-jaw distance_Decrease; details: exposure time: 4 dpf
Method: as §1

[9] = system: Danio rerio embryo; assay: EC50 Otolith-eye distance_Decrease; details: exposure time: 4 dpf
Method: as §1

[10] = system: Danio rerio embryo; assay: EC10 LMR dark; higher = less potent; details: exposure time: 4 dpf
Method: as §1

[11] = system: Danio rerio embryo; assay: EC20 LMR dark; higher = less potent; details: exposure time: 4 dpf
Method: as §1

[12] = system: Danio rerio embryo; assay: EC20 Any effect; higher = less potent
Method: as §1

[13] = system: Danio rerio embryo; assay: EC10 Any effect; higher = less potent
Method: as §1

[14] = system: Danio rerio embryo; assay: EC10 Curvature_Increase; higher = less potent; details: exposure time: 2 dpf
Method: as §1

[15] = system: Danio rerio embryo; assay: EC20 Curvature_Increase; higher = less potent; details: exposure time: 2 dpf
Method: as §1

[16] = system: Danio rerio embryo; assay: EC20 Body length_Decrease; higher = less potent
Method: as §1

[17] = system: Danio rerio embryo; assay: EC10 Body length_Decrease; higher = less potent
Method: as §1

[18] = system: Danio rerio embryo; assay: EC10 Bladder size_Decrease; higher = less potent; details: exposure time: 4 dpf
Method: as §1

[19] = system: Danio rerio embryo; assay: EC20 Bladder size_Decrease; higher = less potent; details: exposure time: 4 dpf
Method: as §1

[20] = system: Danio rerio embryo; assay: EC20 Yolk sac size_Increase; higher = less potent; details: exposure time: 4 dpf
Method: as §1

[21] = system: Danio rerio embryo; assay: EC20 Pericard size_Increase; higher = less potent
Method: as §1

[22] = system: Danio rerio embryo; assay: EC10 Yolk sac size_Increase; higher = less potent; details: exposure time: 4 dpf
Method: as §1

[23] = system: Danio rerio embryo; assay: EC10 Pericard size_Increase; higher = less potent
Method: as §1

[24] = system: Danio rerio embryo; assay: EC20 Eye-jaw distance_Decrease; higher = less potent; details: exposure time: 4 dpf
Method: as §1

[25] = system: Danio rerio embryo; assay: EC10 Eye-jaw distance_Decrease; higher = less potent; details: exposure time: 4 dpf
Method: as §1

[26] = system: Danio rerio embryo; assay: EC20 Otolith-eye distance_Decrease; higher = less potent; details: exposure time: 4 dpf
Method: as §1

[27] = system: Danio rerio embryo; assay: EC10 Otolith-eye distance_Decrease; higher = less potent; details: exposure time: 4 dpf
Method: as §1

[28] = system: Danio rerio embryo; assay: spontaneous tail coiling frequency (coils/min/embryo); higher = more spontaneous movement; details: 25 hpf
Method: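 Spontaneous tail coilings of zebrafish embryos exposed from 2 hpf were recorded at 24-25 hpf in 1-min videos and detected by a KNIME workflow from grey-value variance. Betamethasone was tested as the dipropionate, diflorasone as the diacetate.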

CSc1nc2cc(Cl)c(Oc3cccc(Cl)c3Cl)cc2[nH]1 [Triclabendazole]
Details | EC10 Any effect [nM] | EC10 Body length Decrease [nM] | EC10 Pericard size Increase [nM] | EC20 Any effect [nM] | EC20 Body length Decrease [nM] | EC20 Pericard size Increase [nM] | EC50 Any effect [nM] | EC50 Body length Decrease [nM] | EC50 Pericard size Increase [nM] | EC50 Pigmentation increase [nM] | EC50 STC decrease [nM] | spontaneous tail coiling frequency
[1], exposure time: 2 dpf | – | – | – | – | – | – | 1340 | – | – | – | – | –
[1], exposure time: 4 dpf | – | – | – | – | – | – | 556 | – | – | 690 | – | –
[1], exposure time: 25 h | – | – | – | – | – | – | – | – | – | – | 76 | –
[4], exposure time: 2 dpf | – | – | – | – | – | – | – | 1270 | – | – | – | –
[4], exposure time: 4 dpf | – | – | – | – | – | – | – | 1090 | – | – | – | –
[6], exposure time: 2 dpf | – | – | – | – | – | – | – | – | 2140 | – | – | –
[6], exposure time: 4 dpf | – | – | – | – | – | – | – | – | 782 | – | – | –
[12], exposure time: 2 dpf | – | – | – | 1040 | – | – | – | – | – | – | – | –
[12], exposure time: 4 dpf | – | – | – | 411 | – | – | – | – | – | – | – | –
[13], exposure time: 2 dpf | 893 | – | – | – | – | – | – | – | – | – | – | –
[13], exposure time: 4 dpf | 344 | – | – | – | – | – | – | – | – | – | – | –
[16], exposure time: 2 dpf | – | – | – | – | 850 | – | – | – | – | – | – | –
[16], exposure time: 4 dpf | – | – | – | – | 738 | – | – | – | – | – | – | –
[17], exposure time: 2 dpf | – | 672 | – | – | – | – | – | – | – | – | – | –
[17], exposure time: 4 dpf | – | 586 | – | – | – | – | – | – | – | – | – | –
[21], exposure time: 2 dpf | – | – | – | – | – | 1010 | – | – | – | – | – | –
[21], exposure time: 4 dpf | – | – | – | – | – | 775 | – | – | – | – | – | –
[23], exposure time: 2 dpf | – | – | 651 | – | – | – | – | – | – | – | – | –
[23], exposure time: 4 dpf | – | – | 772 | – | – | – | – | – | – | – | – | –
[28], 0.139 µM | – | – | – | – | – | – | – | – | – | – | – | 0.65
[28], 0.488205 µM | – | – | – | – | – | – | – | – | – | – | – | 1.35
[28], 0.577 µM | – | – | – | – | – | – | – | – | – | – | – | 1.03
[28], 0.732308 µM | – | – | – | – | – | – | – | – | – | – | – | 1.05
[28], 0.835 µM | – | – | – | – | – | – | – | – | – | – | – | 1.49
[28], 1.086 µM | – | – | – | – | – | – | – | – | – | – | – | 1.13
[28], 1.09846 µM | – | – | – | – | – | – | – | – | – | – | – | 0.655
[28], 1.412 µM | – | – | – | – | – | – | – | – | – | – | – | 0.667
[28], 1.64769 µM | – | – | – | – | – | – | – | – | – | – | – | 1.2
[28], 1.835 µM | – | – | – | – | – | – | – | – | – | – | – | 0.75
[28], 2.386 µM | – | – | – | – | – | – | – | – | – | – | – | 0.583
[28], 2.47154 µM | – | – | – | – | – | – | – | – | – | – | – | 0.315
[28], 3.70731 µM | – | – | – | – | – | – | – | – | – | – | – | 0.06

Details | EC10 Bladder size Decrease [nM] | EC10 Curvature Increase [nM] | EC10 Eye-jaw distance Decrease [nM] | EC10 LMR dark [nM] | EC10 Otolith-eye distance Decrease [nM] | EC10 Yolk sac size Increase [nM] | EC20 Bladder size Decrease [nM] | EC20 Curvature Increase [nM] | EC20 Eye-jaw distance Decrease [nM] | EC20 LMR dark [nM] | EC20 Otolith-eye distance Decrease [nM] | EC20 Yolk sac size Increase [nM] | EC50 Bladder size Decrease [nM] | EC50 Curvature Increase [nM] | EC50 Eye-jaw distance Decrease [nM] | EC50 LMR dark [nM] | EC50 Otolith-eye distance Decrease [nM] | EC50 Yolk sac size Increase [nM]
[2] | – | – | – | – | – | – | – | – | – | – | – | – | – | – | – | 403 | – | –
[3] | – | – | – | – | – | – | – | – | – | – | – | – | – | 1980 | – | – | – | –
[5] | – | – | – | – | – | – | – | – | – | – | – | – | 497 | – | – | – | – | –
[7] | – | – | – | – | – | – | – | – | – | – | – | – | – | – | – | – | – | 691
[8] | – | – | – | – | – | – | – | – | – | – | – | – | – | – | 731 | – | – | –
[9] | – | – | – | – | – | – | – | – | – | – | – | – | – | – | – | – | 796 | –
[10] | – | – | – | 178 | – | – | – | – | – | – | – | – | – | – | – | – | – | –
[11] | – | – | – | – | – | – | – | – | – | 240 | – | – | – | – | – | – | – | –
[14] | – | 1710 | – | – | – | – | – | – | – | – | – | – | – | – | – | – | – | –
[15] | – | – | – | – | – | – | – | 1810 | – | – | – | – | – | – | – | – | – | –
[18] | 462 | – | – | – | – | – | – | – | – | – | – | – | – | – | – | – | – | –
[19] | – | – | – | – | – | – | 475 | – | – | – | – | – | – | – | – | – | – | –
[20] | – | – | – | – | – | – | – | – | – | – | – | 533 | – | – | – | – | – | –
[22] | – | – | – | – | – | 458 | – | – | – | – | – | – | – | – | – | – | – | –
[24] | – | – | – | – | – | – | – | – | 708 | – | – | – | – | – | – | – | – | –
[25] | – | – | 695 | – | – | – | – | – | – | – | – | – | – | – | – | – | – | –
[26] | – | – | – | – | – | – | – | – | – | – | 622 | – | – | – | – | – | – | –
[27] | – | – | – | – | 538 | – | – | – | – | – | – | – | – | – | – | – | – | –
